{"source": "patent US20120258938A1", "about": "“Enzymatic Production or Chemical Synthesis and Uses for 5,7-Dienes and UVB Conversion Products Thereof” (priority 2008, published 2012)", "key": {"[1]": {"system": "HL-60 human promyelocytic leukemia cells", "experiment": "Monocytic differentiation (NBT), HL-60", "format": "cell-based", "conditions": "HL-60, 0.1 μM", "method": "(§1) HL-60 human promyelocytic and U937 promonocytic leukemia cells were treated with the drugs at 0.1 μM or vehicle (negative control or 12-O-tetradecanoylphorbol-13-acetate (TPA) (positive control). Media were changed every 72 h and test substances added fresh every day. Differentiation toward monocytes-like morphology and NBT-reduction has been assessed after 5 and 7 days. Cells (2×106) were washed with PBS four times and resuspended in 200 μL of NBT solution (4 mg/mL) in water. After the addition of 200 ul of TPA solution (2 ug/ml) in PBS cells were incubated at 37° C. for 60 min in 24-well plates. Cell differentiation was assessed by intracellular blue formazan deposits. The NBT positive and negative cells were scored under light microscopy examination (40×) with a minimum of 200 cells scored.\n(§2) For spectrophotometric analysis the cells were washed twice with buffer containing cold bovine serum albumin solution (17 mg/mL BSA, 137 mmol/L, NaCl, 5 mmol/L, KCl, 0.8 mmol/L, MgSO4, […], HEPES, pH7.4) to remove unreacted NBT, and the insoluble formazan deposits in the resulting pellet were solubilized in 1 mL of a mixture containing 90% DMSO, 0.1% SDS and 0.01 mmol/L NaOH by vigorous vortexing. The samples were centrifuged 5 min at 1500 g to remove the cellular debris, and then the absorbance of supernatants was measured at 715 nm. Data are expressed as change in A715/106 cells."}, "[2]": {"system": "U937 promonocytic leukemia cells", "experiment": "Monocytic differentiation (NBT), U937", "format": "cell-based, human", "conditions": "U937, 0.1 μM", "method": "as §1, §2"}, "[3]": {"system": "PC3 human prostate cancer cells", "experiment": "Soft agar colony formation, PC3 prostate cancer", "format": "cell-based", "conditions": "PC3, dose dependent", "method": "Growth and survival of prostate cancer cells (PC3) and melanoma cells SKMEL 188 and AbC1 was determined by following their ability to form colonies in soft agar. Cells growing in monolayer culture were trypsinized and resuspended (1,000 cells/well) in 0.25 ml medium containing 0.4% agarose and 5% charcoal stripped serum (HyClone).\nCell suspensions were added to 0.8% agar layer in 24 well plates. Compounds were added from ethanol stocks (100 μM) to final concentrations of 0.1 nM or 10 nM, in 100 μL media. Each condition was tested in quadruplicate. An ethanol solvent control (amount of ethanol equivalent to test) as well as a media-only control was included in the assay. Cells were allowed to grow at 37° with 5% CO2 over two weeks with secosteroids in fresh media (100 μL) being added after every 72 h. Soft agar colonies were scored and stained with 0.5 mg/ml MTT reagent (Promega), 500 μL/well after two weeks. Colonies were then counted under the microscope and number of units was calculated as number of colonies formed divided by the number of cells seeded×100."}, "[4]": {"system": "NFκBI (IκBα)", "experiment": "Western blot IκB-α in HaCaT and normal keratinocytes", "format": "cell-based, human", "conditions": "100 nM, time dependant", "method": "HaCaT keratinocytes were treated with 20,23-dihydroxycholecalciferol for indicated time: 0 h, 30 min, 1 h, 4 h, 16 h and 24 h, at the concentration of 10^−7 [M]. Cells were lysed and whole cell extract has been prepared. The equal amount of proteins calculates using Bradford method has been subjected to electrophoresis in SDS-PAGE 7-15% gel and transferred to a PVDF membrane (Millipore). The primary antibodies used were the rabbit polyclonal antibodies of anti+ IκB-α (Santa Cruz), 1:250 dilution, anti-p65 (Santa Cruz) 1:500 dilution and anti-β actin-peroxidase (Sigma) 1:1000 dilution. Secondary antibody used was anti rabbit-HRP (Santa Cruz) 1:7,000 dilution."}, "[5]": {"system": "WM164", "experiment": "Flow cytometry cell cycle and subG1, WM164", "format": "cell-based", "conditions": "WM164, 24 h", "method": "MD-MBA-231, MG-63, PC-3, and WM164 cells were seeded into Petri dishes and then incubated for 24 h with 20-hydroxycholecalciferol in DMEM medium containing 5% FBS. Then cells were fixed, DNA stained and samples read with flow cytometer as described (7). Data was analyzed with Cell Quest (BD Biosciences). Cell cycle phases were assessed in viable cell populations and subG1 contents were calculated within whole cell population."}, "[6]": {"system": "type I collagen", "experiment": "Type I collagen ELISA, TGF-b1 stimulated skin fibroblasts", "format": "cell-based", "conditions": "human skin fibroblasts", "method": "Additional studies using human skin fibroblasts were performed employing a type I collagen specific ELISA Chondrex, and real time RT PCR to quantitate type I collagen protein and Col1A1 mRNA expression in culture of human fibroblast stimulated by TGF-b1 in the presence and absence of 17,20S(OH)2pD3 and/or 20(OH)D3. These studies confirmed that Type I collagen protein production that was induced by TGF-b1 and that Col1A1 mRNA that was induced by TGF-b1 were suppressed by these analogues (FIGS. 44A-44B)."}}}
{"smiles": "C=C1CC[C@H](O)C/C1=C/C=C1\\CCC[C@]2(C)[C@@H](C(C)=O)CC[C@@H]12", "note": "[pD3, (5Z,7E)-3β-hydroxy-9,10-secopregna-5,7,10(19)-trien-20-one]", "values": [{"measurement": "monocytic differentiation (NBT staining)", "setting": "[1]", "result": "induce monocytic differention"}, {"measurement": "monocytic differentiation (NBT staining)", "setting": "[2]", "result": "induce monocytic differention"}, {"measurement": "colony formation on soft agar", "setting": "[3]", "result": "suppress colony formation on soft agar"}]}
{"smiles": "C=C1CC[C@H](O)C/C1=C/C=C1\\CCC[C@]2(C)[C@@H](C(C)(O)CC(O)CC(C)C)CC[C@@H]12", "note": "(stereo partly drawn) [20,23-dihydroxycholecalciferol, (5Z,7E)-9,10-secocholesta-5,7,10(19)-triene-3β,20,23-triol]", "values": [{"measurement": "NFκBI (IκBα) protein levels", "setting": "[4]", "result": "induced an increase in NFκBI (IκBα) protein levels"}]}
{"smiles": "C=C1CC[C@H](O)C/C1=C/C=C1\\CCC[C@@]2(C)[C@H]1CC[C@@H]2[C@@](C)(O)CCCC(C)C", "note": "[20(OH)D3, (5Z,7E)-9,10-secocholesta-5,7,10(19)-triene-3β,20-diol]", "values": [{"measurement": "G0/G1 of viable cells", "setting": "[5]", "result": 70, "unit": "%"}, {"measurement": "G2/M of viable cells", "setting": "[5]", "result": 7}, {"measurement": "S of viable cells", "setting": "[5]", "result": 24, "unit": "%"}, {"measurement": "Viable Cells", "setting": "[5]", "result": 87}, {"measurement": "subG1", "setting": "[5]; whole cell population", "result": 13}, {"measurement": "TGF-b1 induced Type I collagen protein production (ELISA)", "setting": "[6]", "result": "suppressed"}]}
